# Measured values: ChEMBL document CHEMBL5230088 (Eur J Med Chem, 2020)
# Key:
# Nipah virus [1] = assay: Antiviral activity against NiV by reporter assay; format: functional, organism-based; conditions: Henipavirus nipahense
# Nipah virus [2] = assay: Antiviral activity against NiV by virus titre reduction assay; format: functional, organism-based; conditions: Henipavirus nipahense
# Ebolavirus [3] = assay: Antiviral activity against EBOV infected in human primary macrophage cells assessed as reduction in viral replication; format: functional, organism-based; conditions: Orthoebolavirus
# Junin virus = assay: Antiviral activity against Argentinian mammarenavirus assessed as inhibition of viral replication; format: functional, organism-based; conditions: Mammarenavirus juninense
# Nipah virus [4] = assay: Antiviral activity against NiV by cytopathic effect assay; format: functional, organism-based; conditions: Henipavirus nipahense
# [5] = Antiviral activity against Porcine delta coronavirus assessed as reduction in viral replication; format: functional, Porcine deltacoronavirus
# Lassa virus = assay: Antiviral activity against Lassa virus assessed as inhibition of viral replication; format: functional, organism-based; conditions: Mammarenavirus lassaense
# Ebolavirus [6] = assay: Antiviral activity against EBOV infected in human HeLa cells assessed as reduction in viral replication; format: functional, organism-based; conditions: Orthoebolavirus
# Human coronavirus OC43 = assay: Antiviral activity against HCoV-OC43; format: functional, organism-based; conditions: Betacoronavirus 1
# Ebolavirus [7] = assay: Antiviral activity against EBOV infected in human Huh-7 cells assessed as reduction in viral replication; format: functional, organism-based; conditions: Orthoebolavirus
# [8] = Prodrug conversion in mouse lungs assessed as NTP formation at 10 mg/kg; format: ADME, organism-based, Lung; conditions: in vivo
# Nipah virus [9] = assay: Antiviral activity against NiV by antigen reduction assay; format: functional, organism-based; conditions: Henipavirus nipahense
# [10] = system: Middle East respiratory syndrome-related coronavirus; assay: Antiviral activity against MERS-CoV infected in HLE cells assessed as inhibition of viral replication; format: functional, organism-based
# Ebolavirus [11] = assay: Antiviral activity against EBOV infected in rhesus monkey model assessed as protection against viral infection at 10 mg/kg, iv administered once daily fir 12 days relative to control; format: functional; conditions: time 12 day
# Murine hepatitis virus = assay: Antiviral activity against MHV infected in mouse Astrocytoma delayed brain tumor (DBT) cells; format: functional, organism-based; conditions: Murine coronavirus, Astrocytoma delayed brain tumor (DBT) cell
# [12] = Cytotoxicity against African green monkey Vero E6 cells; format: toxicity, cell-based, Vero C1008; conditions: chlorocebus sabaeus
# SARS-CoV-2 = assay: Antiviral activity against SARS-CoV-2 infected in HAE cells assessed as reduction in viral infection; format: functional, organism-based; conditions: Severe acute respiratory syndrome coronavirus 2, HAE
# [13] = Prodrug conversion in rhesus monkey plasma assessed as NTP formation at 10 mg/kg; format: ADME, organism-based, Macaca mulatta; conditions: in vivo
# [14] = Cytotoxicity against mouse Astrocytoma delayed brain tumor (DBT) cells; format: toxicity, cell-based, Astrocytoma delayed brain tumor (DBT) cell
# [15] = system: Respiratory syncytial virus; assay: Antiviral activity against RSV; format: functional, organism-based; conditions: human respiratory syncytial virus
# Ebolavirus [16] = assay: Antiviral activity against EBOV infected in HFF assessed as reduction in viral replication; format: functional, organism-based; conditions: Orthoebolavirus
# Ebolavirus [17] = assay: Antiviral activity against EBOV infected in human endothelial cells assessed as reduction in viral replication; format: functional, organism-based; conditions: Orthoebolavirus
# [18] = Cytotoxicity against human Huh-7 cells by celltiter-glo Assay; format: toxicity, cell-based
# [19] = system: Middle East respiratory syndrome-related coronavirus; assay: Antiviral activity against MERS-CoV infected in HAE cells; format: functional, organism-based
compound,measurement,setting,value
CCC(CC)COC(=O)[C@H](C)N[P@](=O)(OC[C@H]1O[C@@](C#N)(c2ccc3c(N)ncnn23)[C@H](O)[C@@H]1O)Oc1ccccc1,EC50,Nipah virus [1],29 nM
same,EC50,Nipah virus [2],29 nM
same,EC50,Ebolavirus [3],60 nM
same,EC50,Junin virus,470 nM
same,EC90,Junin virus,1330 nM
same,EC50,Nipah virus [4],29 nM
same,EC50,[5],20 nM
same,EC50,Lassa virus,1480 nM
same,EC90,Lassa virus,2800 nM
same,EC50,Ebolavirus [6],60 nM
same,EC50,Human coronavirus OC43,150 nM
same,EC50,Ebolavirus [7],60 nM
same,Drug metabolism,[8],2 µmol/L
same,EC50,Nipah virus [9],29 nM
same,IC50,[10],25 nM
same,Activity,Ebolavirus [11],100%
same,EC50,Murine hepatitis virus,30 nM
same,CC50,[12],> 100000 nM
same,EC50,SARS-CoV-2,69 nM
same,Drug metabolism,[13],30 µmol/L
same,CC50,[14],39000 nM
same,EC50,[15],19 nM
same,EC90,[15],51 nM
same,EC50,Ebolavirus [16],60 nM
same,EC50,Ebolavirus [17],60 nM
same,CC50,[18],> 10000 nM
same,EC50,[19],74 nM
